# Measurements taken from US3962282A, “Juvenile hormone mimics” (priority 1974, dated 1976).
# What was measured:
# housefly larvae = assay: topical application to housefly larvae; type: in vivo, Musca domestica
# Method: (§1) The compounds were applied in acetone solution at concentrations of 10 percent, 1 percent and 0.5 percent. One microliter of the acetone solution was applied to each test specimen. Ten test specimens were employed for each insect at each concentration and compared to ten acetone controls and ten zero controls. Approximately eight to ten days were required before results could be ascertained.
# A number of compounds were tested against housefly larvae by topical application in an acetone solution using the method described above for the primary test against Tenebrio, milkweed bug, wax moth, and Mexican bean bettel. The results with the first compound are reported on a scale of 0 to 3 with 0 indicating a normal adult, 1 indicating an adult with deformed wings, 2 indicating a partially emerged adult, and 3 indicating no evidence of emergence. The results for the other compounds are reported onn a scale of 0 to 2 with 0 indicating a normal adult, 1 indicating a partially emerged adult and 2 indicating no evidence of emergence.
# milkweed bug = assay: topical application to milkweed bug, fourth nymphal stage, maturation inhibition; type: in vivo; details: rating scale 0-3
# Description: as §1
# (§2) The insect species used in the test were Tenebrio molitor pupae; milkweed bug, fourth nymphal stage; wax moth, fifth larval stage; and Mexican bean beetle, fourth larval stage. At the completion of the test, each specimen was examined for the degree of juvenile and adult characteristics. The milkweed bug, wax moth, and Mexican bean beetle were assigned a numerical rating of 0 to 3 with 0 indicating no effect and 3 indicating the maximum effect or least adult development. Because of differences in morphology the Tenebrio rating scale was 0 to 4. In all cases a rating of 2 or higher means that the insect is incapable of reproduction. The number of specimens in each rating classification are given. In any test were the total of specimens reported is less than 10, those unreported died in some metamorphic stage. Such deaths indicate control, since the dead insects are not capable of reproducing.
# Mexican bean beetle = assay: topical application to Mexican bean beetle, fourth larval stage, maturation inhibition; type: in vivo
# Description: as §1, §2
# wax moth = assay: topical application to wax moth, fifth larval stage, maturation inhibition; type: in vivo
# Description: as §1, §2
# Tenebrio molitor pupae = assay: topical application to Tenebrio molitor pupae, maturation inhibition; type: in vivo
# Description: as §1, §2
# [1] = tested on: Housefly (Musca domestica); assay: housefly rearing diet test, percent adult emergence; type: in vivo
# Method: Test compounds were mixed with the rearing diet of houseflys at various levels. The prepared diet was then placed in an 8 oz. drinking cup. Three cups were prepared for each treatment level and three control cups. Housefly eggs (Musca domestica) were placed in each cup and they were maintained at 28°C. for 1 week. Fifty pupae were then removed from each cup and placed in a petri dish. After the control pupae had emerged into adults, the percent emergence in each dish was recorded. The test compounds used were 7,8-epoxy-4-ethyl-8-methyl-1-(3,4-methylenedioxyphenyl)-3-decene, 4,8-dimetyl-1-(3,4-methylenedioxyphenyl)-2,6-nonadiene and 2,6-dichloro-2,6-dimethyl-9-(3,4-methylenedioxyphenyl)nonane.
# [2] = 10% in acetone, 1 microliter topical, rating scale 0 (no effect) to 3 (maximum)
compound,measurement,setting,value
"CC(C)=CCC/C(C)=C/CCc1ccc(Cl)c(Cl)c1 [trans-2,6-dimethyl-9-(3,4-dichlorophenyl)-2,6-nonadiene]",number in rating 0 (normal adult),"housefly larvae; 0.5%, scale 0-3",3
same,number in rating 2 (partially emerged adult),"housefly larvae; 0.5%, scale 0-3",1
same,number in rating 3 (no evidence of emergence),"housefly larvae; 0.5%, scale 0-3",6
same,number in rating 0 (normal adult),"housefly larvae; 1%, scale 0-3",8
same,number in rating 3 (no evidence of emergence),"housefly larvae; 1%, scale 0-3",2
same,number in rating 0 (normal adult),"housefly larvae; 10%, scale 0-3",5
same,number in rating 3 (no evidence of emergence),"housefly larvae; 10%, scale 0-3",5
same,number of specimens in rating 3,milkweed bug; 0.5%,10 specimens
same,number of specimens in rating 3,milkweed bug; 1%,10 specimens
same,number of specimens in rating 3,milkweed bug; 10%,10 specimens
same,number of specimens in rating 0,"Mexican bean beetle; 0.5%, rating scale 0-3",10 specimens
same,number of specimens in rating 0,"Mexican bean beetle; 1%, rating scale 0-3",10 specimens
same,number of specimens in rating 0,Mexican bean beetle; [2],6 specimens
same,number of specimens in rating 1,"Mexican bean beetle; 10%, rating scale 0-3",1 specimens
same,number of specimens in rating 2,"Mexican bean beetle; 10%, rating scale 0-3",1 specimens
same,number of specimens in rating 3,"Mexican bean beetle; 10%, rating scale 0-3",2 specimens
same,number of specimens in rating 0,"wax moth; 0.5%, rating scale 0-3",10 specimens
same,number of specimens in rating 0,"wax moth; 1%, rating scale 0-3",10 specimens
same,number of specimens in rating 0,wax moth; [2],10 specimens
same,number of specimens in rating 0,"Tenebrio molitor pupae; 0.5%, rating scale 0-4",10 specimens
same,number of specimens in rating 0,"Tenebrio molitor pupae; 1%, rating scale 0-4",10 specimens
same,number of specimens in rating 0,"Tenebrio molitor pupae; 10% in acetone, 1 microliter topical, rating scale 0 (no effect) to 4 (maximum)",10 specimens
"CC(C)=CCC/C(C)=C\CCc1ccc(Cl)cc1 [cis-9-(4-chlorophenyl)-2,6-dimethyl-2,6-nonadiene]",number in rating 0 (normal adult),"housefly larvae; 0.5%, scale 0-2",3
same,number in rating 1 (partially emerged adult),"housefly larvae; 0.5%, scale 0-2",3
same,number in rating 2 (no evidence of emergence),"housefly larvae; 0.5%, scale 0-2",3
same,number in rating 0 (normal adult),"housefly larvae; 1%, scale 0-2",2
same,number in rating 1 (partially emerged adult),"housefly larvae; 1%, scale 0-2",2
same,number in rating 2 (no evidence of emergence),"housefly larvae; 1%, scale 0-2",4
same,number in rating 1 (partially emerged adult),"housefly larvae; 10%, scale 0-2",2
same,number in rating 2 (no evidence of emergence),"housefly larvae; 10%, scale 0-2",6
"CC(C)=CCC/C(C)=C/CCc1ccc(Cl)cc1 [trans-2,6-dimethyl-9-(4-chlorophenyl)-2,6-nonadiene]",number in rating 0 (normal adult),"housefly larvae; 0.5%, scale 0-2",4
same,number in rating 2 (no evidence of emergence),"housefly larvae; 0.5%, scale 0-2",6
same,number in rating 0 (normal adult),"housefly larvae; 1%, scale 0-2",3
same,number in rating 1 (partially emerged adult),"housefly larvae; 1%, scale 0-2",3
same,number in rating 2 (no evidence of emergence),"housefly larvae; 1%, scale 0-2",4
same,number in rating 0 (normal adult),"housefly larvae; 10%, scale 0-2",3
same,number in rating 1 (partially emerged adult),"housefly larvae; 10%, scale 0-2",1
same,number in rating 2 (no evidence of emergence),"housefly larvae; 10%, scale 0-2",5
same,number of specimens in rating 3,milkweed bug; 0.5%,10 specimens
same,number of specimens in rating 3,milkweed bug; 1%,10 specimens
same,number of specimens in rating 3,milkweed bug; 10%,10 specimens
same,number of specimens in rating 3,"Mexican bean beetle; 0.5%, rating scale 0-3",10 specimens
same,number of specimens in rating 3,"Mexican bean beetle; 1%, rating scale 0-3",10 specimens
same,number of specimens in rating 3,"Mexican bean beetle; 10%, rating scale 0-3",10 specimens
same,number of specimens in rating 0,"wax moth; 0.5%, rating scale 0-3",10 specimens
same,number of specimens in rating 0,"wax moth; 1%, rating scale 0-3",9 specimens
same,number of specimens in rating 2,"wax moth; 1%, rating scale 0-3",1 specimens
same,number of specimens in rating 0,wax moth; [2],6 specimens
same,number of specimens in rating 1,"wax moth; 10%, rating scale 0-3",1 specimens
same,number of specimens in rating 2,"wax moth; 10%, rating scale 0-3",3 specimens
same,number of specimens in rating 0,"Tenebrio molitor pupae; 0.5%, rating scale 0-4",10 specimens
same,number of specimens in rating 0,"Tenebrio molitor pupae; 1%, rating scale 0-4",4 specimens
same,number of specimens in rating 1,"Tenebrio molitor pupae; 1%, rating scale 0-4",3 specimens
same,number of specimens in rating 3,"Tenebrio molitor pupae; 1%, rating scale 0-4",3 specimens
same,number of specimens in rating 4,"Tenebrio molitor pupae; 10%, rating scale 0-4",10 specimens
"CC(C)(Cl)CCCC(C)(Cl)CCCc1ccc2c(c1)OCO2 (stereo not shown) [2,6-dichloro-2,6-dimethyl-9-(3,4-methylenedioxyphenyl)nonane]",number in rating 0 (normal adult),"housefly larvae; 0.5%, scale 0-2",2
same,number in rating 2 (no evidence of emergence),"housefly larvae; 0.5%, scale 0-2",8
same,number in rating 0 (normal adult),"housefly larvae; 1%, scale 0-2",1
same,number in rating 2 (no evidence of emergence),"housefly larvae; 1%, scale 0-2",9
same,number in rating 2 (no evidence of emergence),"housefly larvae; 10%, scale 0-2",10
same,number of specimens in rating 3,milkweed bug; 0.5%,8 specimens
same,number of specimens in rating 3,milkweed bug; 1%,10 specimens
same,number of specimens in rating 3,milkweed bug; 10%,5 specimens
same,number of specimens in rating 0,"Mexican bean beetle; 0.5%, rating scale 0-3",8 specimens
same,number of specimens in rating 1,"Mexican bean beetle; 0.5%, rating scale 0-3",2 specimens
same,number of specimens in rating 0,"Mexican bean beetle; 1%, rating scale 0-3",5 specimens
same,number of specimens in rating 1,"Mexican bean beetle; 1%, rating scale 0-3",3 specimens
same,number of specimens in rating 2,"Mexican bean beetle; 1%, rating scale 0-3",2 specimens
same,number of specimens in rating 1,"Mexican bean beetle; 10%, rating scale 0-3",1 specimens
same,number of specimens in rating 2,"Mexican bean beetle; 10%, rating scale 0-3",4 specimens
same,number of specimens in rating 3,"Mexican bean beetle; 10%, rating scale 0-3",5 specimens
same,"percent adult emergence, Cup 1",[1]; 0.1 ppm in diet,100%
same,"percent adult emergence, Cup 2",[1]; 0.1 ppm in diet,100%
same,"percent adult emergence, Cup 3",[1]; 0.1 ppm in diet,100%
same,"percent adult emergence, Cup 1",[1]; 1 ppm in diet,100%
same,"percent adult emergence, Cup 2",[1]; 1 ppm in diet,100%
same,"percent adult emergence, Cup 3",[1]; 1 ppm in diet,100%
same,"percent adult emergence, Cup 1",[1]; 10 ppm in diet,100%
same,"percent adult emergence, Cup 2",[1]; 10 ppm in diet,90%
same,"percent adult emergence, Cup 3",[1]; 10 ppm in diet,90%
same,control,[1]; 100 ppm,100%
same,"percent adult emergence, Cup 1",[1]; 100 ppm in diet,0%
same,"percent adult emergence, Cup 2",[1]; 100 ppm in diet,0%
same,"percent adult emergence, Cup 3",[1]; 100 ppm in diet,0%
same,number of specimens in rating 0,"wax moth; 0.5%, rating scale 0-3",10 specimens
same,number of specimens in rating 0,"wax moth; 1%, rating scale 0-3",10 specimens
same,number of specimens in rating 0,wax moth; [2],10 specimens
same,number of specimens in rating 1,"Tenebrio molitor pupae; 0.5%, rating scale 0-4",2 specimens
same,number of specimens in rating 2,"Tenebrio molitor pupae; 0.5%, rating scale 0-4",8 specimens
same,number of specimens in rating 2,"Tenebrio molitor pupae; 1%, rating scale 0-4",10 specimens
same,number of specimens in rating 2,"Tenebrio molitor pupae; 10%, rating scale 0-4",1 specimens
same,number of specimens in rating 3,"Tenebrio molitor pupae; 10%, rating scale 0-4",9 specimens
"CC(=CCCc1ccc2c(c1)OCO2)CCC1OC1(C)C (stereo not shown) [9-(3,4-methylenedioxyphenyl)-2,6-dimethyl-2,3-epoxy-6-nonene]",number in rating 2 (no evidence of emergence),"housefly larvae; 1%, scale 0-2",10
same,number in rating 2 (no evidence of emergence),"housefly larvae; 10%, scale 0-2",10
same,number of specimens in rating 1,milkweed bug; 0.5%,2 specimens
same,number of specimens in rating 2,milkweed bug; 0.5%,4 specimens
same,number of specimens in rating 1,milkweed bug; 1%,5 specimens
same,number of specimens in rating 3,milkweed bug; 1%,2 specimens
same,number of specimens in rating 3,milkweed bug; 10%,7 specimens
same,number of specimens in rating 4,"Tenebrio molitor pupae; 0.5%, rating scale 0-4",10 specimens
same,number of specimens in rating 0,"Tenebrio molitor pupae; 1%, rating scale 0-4",1 specimens
same,number of specimens in rating 4,"Tenebrio molitor pupae; 1%, rating scale 0-4",9 specimens
same,number of specimens in rating 4,"Tenebrio molitor pupae; 10%, rating scale 0-4",10 specimens
